Measurements from publication PMC8605562, “MSMEG_3955 from Mycobacterium smegmatis is a FMN bounded homotrimeric NAD(P)H:Flavin mononucleotide (FMN) oxidoreductase” (BMC Microbiology, 2021).

Assays:
MSMEG_3955 = target: T1, MSMEG_3955 (Mycolicibacterium smegmatis, UniProt A0QZA6); test: NADPH oxidation at […] nm; assay type: biochemical; conditions: 200 uM NADPH, 50 uM FMN, 1.6 uM enzyme, 50 mM Tris-HCl pH 7.6, 25 °C, aerobic
T1 construct: ~36 kDa subunit, homotrimer ~115 kDa; co-purifies with FMN
T1 sequence (A0QZA6 entry or part of it): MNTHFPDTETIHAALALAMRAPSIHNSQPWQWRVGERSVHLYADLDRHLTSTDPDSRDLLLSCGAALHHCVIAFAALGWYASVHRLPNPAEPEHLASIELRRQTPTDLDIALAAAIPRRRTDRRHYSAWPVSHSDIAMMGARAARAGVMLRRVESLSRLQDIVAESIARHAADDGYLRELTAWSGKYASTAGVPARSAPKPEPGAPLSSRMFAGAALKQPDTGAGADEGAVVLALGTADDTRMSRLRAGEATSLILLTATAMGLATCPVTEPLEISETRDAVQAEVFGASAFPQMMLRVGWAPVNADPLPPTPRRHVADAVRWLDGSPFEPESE

[1] = target: the molecule itself; test: native gel or EMSA; NATIVE-PAGE (12% in the methods, 10% in the legend of Fig. 3a) of purified protein loaded without any treatment, 10 ug (Fig. 3a) or 20 ug each of wild type and mutant (Fig. 2a); band at ~115 kDa against ~36 kDa on SDS-PAGE

`NC(=O)C1=CN([C@@H]2O[C@H](COP(=O)(O)OP(=O)(O)OC[C@H]3O[C@@H](n4cnc5c(N)ncnc54)[C@H](OP(=O)(O)O)[C@@H]3O)[C@@H](O)[C@H]2O)C=CC1` [NADPH] was tested, and the “NADPH oxidation at 340 nm” value (MSMEG_3955) was “showed oxidative NADPH dependent FMN reductase activity as oxidation of NADPH was seen”.

B1: MSMEG_3955 with cysteine 63 replaced by alanine (enzyme, Mycobacterium smegmatis mc2 155, UniProt A0QZA6 1-334, looked up)
chain: MNTHFPDTETIHAALALAMRAPSIHNSQPWQWRVGERSVHLYADLDRHLTSTDPDSRDLLLSAGAALHHCVIAFAALGWYASVHRLPNPAEPEHLASIELRRQTPTDLDIALAAAIPRRRTDRRHYSAWPVSHSDIAMMGARAARAGVMLRRVESLSRLQDIVAESIARHAADDGYLRELTAWSGKYASTAGVPARSAPKPEPGAPLSSRMFAGAALKQPDTGAGADEGAVVLALGTADDTRMSRLRAGEATSLILLTATAMGLATCPVTEPLEISETRDAVQAEVFGASAFPQMMLRVGWAPVNADPLPPTPRRHVADAVRWLDGSPFEPESE
notes: MSMEG_3955, Mycobacterium smegmatis mc2 155, made by site-directed mutagenesis on the pET-28a plasmid of the wild-type gene; cysteine (TGC) at position 63 replaced with alanine (GCC); Same construct as m1 apart from C63A; also called cys-63 mutated native protein MSMEG_3955; mutated protein; source: E. coli BL21 (DE3), pET-28a, purified (Ni-NTA)
B1: binds [1].
